From patent US11339130B1 (Blade Therapeutics, Inc., priority 2016, dated 2022) come the findings set out here.

Read-outs that look alike come from different tables or passages of the source.

Common to all, as to type: biochemical
For one assay, the target named is T1, Human Calpain 9/NS1 (Homo sapiens, UniProt O14815).
T1 sequence (O14815 1-690): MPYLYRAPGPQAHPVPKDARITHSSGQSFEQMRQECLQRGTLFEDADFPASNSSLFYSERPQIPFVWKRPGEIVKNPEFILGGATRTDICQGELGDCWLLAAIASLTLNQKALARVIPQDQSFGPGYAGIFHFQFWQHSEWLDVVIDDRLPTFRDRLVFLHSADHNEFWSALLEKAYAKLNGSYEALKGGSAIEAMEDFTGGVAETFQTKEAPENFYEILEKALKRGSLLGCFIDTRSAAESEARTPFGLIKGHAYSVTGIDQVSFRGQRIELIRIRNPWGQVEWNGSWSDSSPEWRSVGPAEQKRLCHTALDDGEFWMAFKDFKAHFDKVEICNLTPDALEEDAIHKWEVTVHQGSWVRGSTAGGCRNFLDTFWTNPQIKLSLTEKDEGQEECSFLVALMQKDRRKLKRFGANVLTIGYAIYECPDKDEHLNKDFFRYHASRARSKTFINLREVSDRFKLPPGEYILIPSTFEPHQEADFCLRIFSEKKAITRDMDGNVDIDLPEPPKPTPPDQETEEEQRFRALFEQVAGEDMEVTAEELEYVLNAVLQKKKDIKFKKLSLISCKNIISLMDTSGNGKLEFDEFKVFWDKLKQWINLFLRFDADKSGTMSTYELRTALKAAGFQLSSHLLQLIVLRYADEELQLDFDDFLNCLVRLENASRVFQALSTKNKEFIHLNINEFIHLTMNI
T1 sequence (P04632 1-268 partner): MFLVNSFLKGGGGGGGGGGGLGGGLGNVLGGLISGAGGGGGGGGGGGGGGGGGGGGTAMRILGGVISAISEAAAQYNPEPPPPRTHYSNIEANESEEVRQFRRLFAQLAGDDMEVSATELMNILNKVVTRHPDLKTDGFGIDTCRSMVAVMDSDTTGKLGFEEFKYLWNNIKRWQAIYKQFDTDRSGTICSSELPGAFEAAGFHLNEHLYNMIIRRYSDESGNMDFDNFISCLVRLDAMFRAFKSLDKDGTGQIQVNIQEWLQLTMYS
Put plainly: Calpain inhibition continuous fluorescence (FRET) assay, Human Calpain 9/NS1. Conditions: read-out: Human Calpain 9/NS1 IC50. As to the method: (§1) Calpain 1, 2, and 9 activity and inhibition thereof was assessed by means of a continuous fluorescence assay. The SensoLyte 520 Calpain substrate (Anaspec Inc) was optimized for detecting calpain activity. This substrate contains an internally quenched 5-FAM/QXL™ 520 FRET pair. Calpains 1, 2, and 9 cleave the FRET substrate into two separate fragments resulting in an increase of 5-FAM fluorescence that is proportional to calpain activity
(§2) Assays were typically setup in black 384-well plates using automated liquid handling as follows. Calpain assay base buffer typically contains 50 mM Tris, pH 7.5, 100 mM NaCl and 1 mM DTT. Inhibitors were serially diluted in DMSO and used to setup 2× mixtures with calpains in the aforementioned buffer. After incubation at ambient temperature (25C), the reaction was initiated by adding a 2× mix of the fluorescent peptide substrate and CaCl2) (required for in-situ calpain activation) in the same buffer. Reaction progress curve data were typically collected for 10 min using excitation/emission wavelengths of 490 nm/520 nm on SpectraMax i3× or the FLIPR-Tetra plate readers (Molecular Devices Inc). Reaction rates were calculated from progress curve slopes typically over 1-5 min. Dose response curves (rate vs. log inhibitor concentration) were typically fit to a 4-parameter logistic function to extract IC50 values.

A further assay concerns the target T2, Human Calpain 1/NS1 (Homo sapiens, UniProt P07384).
T2 sequence (P07384 1-714): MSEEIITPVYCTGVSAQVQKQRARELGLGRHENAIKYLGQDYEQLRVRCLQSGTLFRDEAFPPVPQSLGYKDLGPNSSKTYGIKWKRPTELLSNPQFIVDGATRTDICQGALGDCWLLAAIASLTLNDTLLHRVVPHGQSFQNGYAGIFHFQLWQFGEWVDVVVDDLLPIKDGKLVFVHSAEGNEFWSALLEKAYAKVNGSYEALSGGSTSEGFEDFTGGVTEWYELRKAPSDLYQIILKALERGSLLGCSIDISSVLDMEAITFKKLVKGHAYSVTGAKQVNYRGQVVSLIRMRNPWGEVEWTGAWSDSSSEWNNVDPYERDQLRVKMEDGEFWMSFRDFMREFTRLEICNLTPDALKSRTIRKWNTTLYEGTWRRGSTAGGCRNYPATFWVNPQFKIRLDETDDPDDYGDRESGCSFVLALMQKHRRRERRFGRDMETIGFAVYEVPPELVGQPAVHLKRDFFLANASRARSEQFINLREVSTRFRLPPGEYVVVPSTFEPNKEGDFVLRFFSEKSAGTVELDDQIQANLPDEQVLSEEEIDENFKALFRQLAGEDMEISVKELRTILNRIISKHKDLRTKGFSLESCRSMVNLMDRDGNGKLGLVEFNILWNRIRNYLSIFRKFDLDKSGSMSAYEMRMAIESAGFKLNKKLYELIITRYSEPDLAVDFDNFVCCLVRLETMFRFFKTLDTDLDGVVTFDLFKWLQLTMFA
T2 sequence (P04632 1-268 partner): T1 sequence (P04632 1-268 partner)
Put plainly: Calpain inhibition continuous fluorescence (FRET) assay, Human Calpain 1/NS1. Conditions: read-out: Human Calpain 1/NS1 IC50. As for the experimental part:
as §1, §2

The target of another assay is T3, Human Calpain 2/NS1 (Homo sapiens, UniProt P17655).
T3 sequence (P17655 1-700): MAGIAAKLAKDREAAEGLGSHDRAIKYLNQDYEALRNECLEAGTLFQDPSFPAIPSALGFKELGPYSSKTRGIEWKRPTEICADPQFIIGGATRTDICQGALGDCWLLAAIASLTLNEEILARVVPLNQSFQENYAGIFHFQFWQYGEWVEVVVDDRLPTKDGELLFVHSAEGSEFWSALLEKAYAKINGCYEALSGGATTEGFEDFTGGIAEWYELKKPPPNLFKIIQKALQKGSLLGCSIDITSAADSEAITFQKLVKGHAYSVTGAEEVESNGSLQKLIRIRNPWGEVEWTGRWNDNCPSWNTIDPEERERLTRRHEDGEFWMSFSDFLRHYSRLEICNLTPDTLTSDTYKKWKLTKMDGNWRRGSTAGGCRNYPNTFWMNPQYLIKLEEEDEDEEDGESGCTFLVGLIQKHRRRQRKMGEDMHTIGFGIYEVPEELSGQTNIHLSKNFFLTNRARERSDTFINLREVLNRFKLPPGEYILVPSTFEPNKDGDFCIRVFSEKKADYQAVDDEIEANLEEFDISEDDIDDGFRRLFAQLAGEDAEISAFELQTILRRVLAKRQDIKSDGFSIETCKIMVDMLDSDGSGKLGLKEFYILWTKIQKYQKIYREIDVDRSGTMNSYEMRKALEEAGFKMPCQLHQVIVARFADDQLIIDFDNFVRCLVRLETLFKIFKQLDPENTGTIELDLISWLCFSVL
T3 sequence (P04632 1-268 partner): T1 sequence (P04632 1-268 partner)
The experiment in a line: Calpain inhibition continuous fluorescence (FRET) assay, Human Calpain 2/NS1. Conditions: read-out: Human Calpain 2/NS1 IC50. As to the method: as §1, §2

Take `Cc1noc(-c2ccccc2)c1C(=O)N[C@@H](CC(C)(C)C)C(=O)C(N)=O` [Compound 56]: the IC50 at Human Calpain 9/NS1 (Column C), at Human Calpain 1/NS1 (Column A) and at Human Calpain 2/NS1 (Column B) was below 3 µM in each case.

Take `Cc1cc(C(=O)N[C@@H](Cc2ccccc2)C(=O)C(N)=O)nn1-c1ncc(-c2ccccc2)o1` [Compound 114, (S)—N-(4-amino-3,4-dioxo-1-phenylbutan-2-yl)-5-methyl-1-(5-phenyloxazol-2-yl)-1H-pyrazole-3-carboxamide]: the IC50 at Human Calpain 9/NS1 (Column C) is 3 to 10 µM; on Human Calpain 1/NS1 (Column A) it was 3 to 10 µM; at Human Calpain 2/NS1 (Column B) it was below 3 µM.

Regarding `O=C(NC1CC1)C(=O)[C@H](Cc1ccccc1)NC(=O)c1cncn1-c1ccc(-c2ccccc2)nn1` [Compound 201, (S)—N-(4-(cyclopropylamino)-3,4-dioxo-1-phenylbutan-2-yl)-1-(6-phenylpyridazin-3-yl)-1H-imidazole-5-carboxamide], the IC50 on Human Calpain 9/NS1 (Column C) was 3 to 10 µM; on Human Calpain 1/NS1 (Column A), below 3 µM; at Human Calpain 2/NS1 (Column B), below 3 µM.

Turning to `NC(=O)C(=O)[C@H](Cc1ccccc1)NC(=O)c1cc2ccccc2n1-c1ccccc1` [Compound 307, (S)—N-(4-amino-3,4-dioxo-1-phenylbutan-2-yl)-1-phenyl-1H-indole-2-carboxamide], the IC50 at Human Calpain 9/NS1, at Human Calpain 1/NS1 and on Human Calpain 2/NS1 was below 3 µM each time.

Take `Cn1ncc(C(=O)N[C@@H](Cc2ccccc2)C(=O)C(N)=O)c1-c1cncnc1` [Compound 176, (S)—N-(4-amino-3,4-dioxo-1-phenylbutan-2-yl)-1-methyl-5-(pyrimidin-5-yl)-1H-pyrazole-4-carboxamide]: the IC50 at Human Calpain 9/NS1 (Column C), on Human Calpain 1/NS1 (Column A) and on Human Calpain 2/NS1 (Column B) was below 3 µM in each case.

In the case of `Cc1nc(C(=O)N[C@@H](Cc2ccccc2)C(=O)C(N)=O)c(-c2ccccc2)s1` [Compound 54, (S)—N-(4-amino-3,4-dioxo-1-phenylbutan-2-yl)-2-methyl-5-phenylthiazole-4-carboxamide], the IC50 on Human Calpain 9/NS1 (Column C), on Human Calpain 1/NS1 (Column A) and at Human Calpain 2/NS1 (Column B) was below 3 µM throughout.

As for `O=C(NC1CC1)C(=O)[C@H](Cc1ccccc1)NC(=O)c1cncn1-c1n[nH]c2ccccc12` [Compound 51, (S)—N-(4-(cyclopropylamino)-3,4-dioxo-1-phenylbutan-2-yl)-1-(1H-indazol-3-yl)-1H-imidazole-5-carboxamide], the IC50 on Human Calpain 9/NS1 (Column C) was above 10 µM; on Human Calpain 1/NS1 (Column A), 3 to 10 µM; at Human Calpain 2/NS1 (Column B) it was 3 to 10 µM.

Take `NC(=O)C(=O)C(Cc1ccccc1)NC(=O)c1cn(C(F)F)nc1-c1ccc2ccncc2c1` (stereo not drawn) [Compound 630, N-(4-amino-3,4-dioxo-1-phenylbutan-2-yl)-1-(difluoromethyl)-3-(isoquinolin-7-yl)-1H-pyrazole-4-carboxamide]: the IC50 at Human Calpain 9/NS1, at Human Calpain 1/NS1 and at Human Calpain 2/NS1 was below 3 µM throughout.

In the case of `Cc1cc(C(=O)N[C@@H](Cc2ccccc2)C(=O)C(=O)NC2CC2)n(-c2cccc3ncccc23)n1` [Compound 78, (S)—N-(4-(cyclopropylamino)-3,4-dioxo-1-phenylbutan-2-yl)-3-methyl-1-(quinolin-5-yl)-1H-pyrazole-5-carboxamide], the IC50 on Human Calpain 9/NS1 (Column C) was below 3 µM; on Human Calpain 1/NS1 (Column A), above 10 µM; at Human Calpain 2/NS1 (Column B), 3 to 10 µM.

In the case of `NC(=O)C(=O)[C@H](Cc1ccccc1)NC(=O)c1nn[nH]c1-c1ccccc1` [Compound 262, (S)—N-(4-amino-3,4-dioxo-1-phenylbutan-2-yl)-5-phenyl-1H-1,2,3-triazole-4-carboxamide], the values for the IC50 on Human Calpain 9/NS1 (Column C), at Human Calpain 1/NS1 (Column A) and at Human Calpain 2/NS1 (Column B) were below 3 µM, 3 to 10 µM and 3 to 10 µM, respectively.

Take `NC(=O)C(=O)C(Cc1ccccc1)NC(=O)c1ccn(Cc2ccccc2)n1` (stereo not drawn) [Compound 284, N-(4-amino-3,4-dioxo-1-phenylbutan-2-yl)-1-benzyl-1H-pyrazole-3-carboxamide]: the IC50 on Human Calpain 9/NS1 (Column C), on Human Calpain 1/NS1 (Column A) and at Human Calpain 2/NS1 (Column B) was above 10 µM each time.

Regarding `Cc1cc(C(F)(F)F)cc(-n2nc(C)cc2C(=O)N[C@@H](Cc2ccccc2)C(=O)C(N)=O)n1` [Compound 234, (S)—N-(4-amino-3,4-dioxo-1-phenylbutan-2-yl)-3-methyl-1-(6-methyl-4-(trifluoromethyl)pyridin-2-yl)-1H-pyrazole-5-carboxamide], the IC50 on Human Calpain 9/NS1 (Column C), on Human Calpain 1/NS1 (Column A) and at Human Calpain 2/NS1 (Column B) was below 3 µM throughout.

For `Cn1cc(-c2ccccc2)c(C(=O)N[C@@H](Cc2ccccc2)C(=O)C(N)=O)n1` [Compound 241, (S)—N-(4-amino-3,4-dioxo-1-phenylbutan-2-yl)-1-methyl-4-phenyl-1H-pyrazole-3-carboxamide], the IC50 on Human Calpain 9/NS1 (Column C), on Human Calpain 1/NS1 (Column A) and at Human Calpain 2/NS1 (Column B) was below 3 µM throughout.

Regarding `Cc1cc(C(=O)N[C@H](C=O)Cc2ccccc2)n(-c2ccccc2)n1` [Compound 8, (S)-3-methyl-N-(1-oxo-3-phenylpropan-2-yl)-1-phenyl-1H-pyrazole-5-Carboxamide], the IC50 at Human Calpain 9/NS1 (Column C), at Human Calpain 1/NS1 (Column A) and on Human Calpain 2/NS1 (Column B) was below 3 µM each time.

Consider `NC(=O)C(=O)[C@H](Cc1ccccc1)NC(=O)c1cncn1-c1nc2ccccc2[nH]1` [Compound 70, (S)—N-(4-amino-3,4-dioxo-1-phenylbutan-2-yl)-1-(1H-benzo[d]imidazol-2-yl)-1H-imidazole-5-carboxamide], for which the IC50 on Human Calpain 9/NS1 (Column C), at Human Calpain 1/NS1 (Column A) and at Human Calpain 2/NS1 (Column B) was below 3 µM in each case.
